Laboratory results taken from ChEMBL document CHEMBL3621112, “Computationally motivated synthesis and enzyme kinetic evaluation of N-(-d-glucopyranosyl)-1,2,4-triazolecarboxamides as glycogen phosphorylase inhibitors” (Medchemcomm, 2015).

Legend:
[1] = molecular target: T1, Glycogen phosphorylase, muscle form (Oryctolagus cuniculus, UniProt P00489); assay: Inhibition of glycogen phosphorylase b in rabbit skeletal muscle using glycogen substrate and glucose-1-phosphate by Lineweaver-Burk plot method
T1 sequence (P00489 whole entry): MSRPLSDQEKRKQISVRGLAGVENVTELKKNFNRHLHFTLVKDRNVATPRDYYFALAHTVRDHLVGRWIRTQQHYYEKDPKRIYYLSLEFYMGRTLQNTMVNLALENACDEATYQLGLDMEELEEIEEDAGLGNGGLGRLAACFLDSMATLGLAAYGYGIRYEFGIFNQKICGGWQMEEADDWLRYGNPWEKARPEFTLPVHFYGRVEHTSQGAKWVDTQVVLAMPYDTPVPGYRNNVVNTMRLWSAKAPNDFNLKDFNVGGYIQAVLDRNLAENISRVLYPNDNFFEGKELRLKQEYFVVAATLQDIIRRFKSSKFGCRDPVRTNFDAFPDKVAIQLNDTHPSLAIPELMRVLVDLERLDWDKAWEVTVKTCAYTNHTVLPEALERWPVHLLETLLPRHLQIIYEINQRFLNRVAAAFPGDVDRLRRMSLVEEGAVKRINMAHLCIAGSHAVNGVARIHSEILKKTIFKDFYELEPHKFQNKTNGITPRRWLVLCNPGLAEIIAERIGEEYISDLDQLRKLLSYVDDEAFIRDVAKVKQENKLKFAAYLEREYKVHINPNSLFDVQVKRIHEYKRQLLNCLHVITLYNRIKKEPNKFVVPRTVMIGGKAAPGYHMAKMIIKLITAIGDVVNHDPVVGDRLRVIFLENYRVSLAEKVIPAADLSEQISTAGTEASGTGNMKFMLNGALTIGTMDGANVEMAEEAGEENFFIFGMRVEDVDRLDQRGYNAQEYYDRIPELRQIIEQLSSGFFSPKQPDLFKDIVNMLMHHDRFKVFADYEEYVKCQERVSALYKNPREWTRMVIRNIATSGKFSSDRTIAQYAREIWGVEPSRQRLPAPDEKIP

[2] = Inhibition of glycogen phosphorylase (unknown origin); design: species or system Homo sapiens

Ki [1] | Ki [2] [µM] | Structure (SMILES) | Ki ([1]; read-out: Ki) [µM]
Not Active |  | O=C(N[C@@H]1O[C@H](CO)[C@@H](O)[C@H](O)[C@H]1O)c1noc(-c2ccc3ccccc3c2)n1 | 
Not Active |  | O=C(N[C@@H]1O[C@H](CO)[C@@H](O)[C@H](O)[C@H]1O)c1nc(-c2ccc3ccccc3c2)no1 | 
 |  | O=C(N[C@@H]1O[C@H](CO)[C@@H](O)[C@H](O)[C@H]1O)c1nnc(-c2ccccc2)[nH]1 | 1
 |  | O=C(N[C@@H]1O[C@H](CO)[C@@H](O)[C@H](O)[C@H]1O)c1nnc(-c2ccc3ccccc3c2)[nH]1 | 9.2
 | 0.35 | O=C(NC(=O)c1ccc2ccccc2c1)N[C@@H]1O[C@H](CO)[C@@H](O)[C@H](O)[C@H]1O | 
